1 molecule from patent US10238612B2, “Transdermal administration of tamsulosin” (Corium International, Inc., priority 2009, dated 2019) can be followed below.

Structures are written as SMILES.

The series is described as follows: Solubility of tamsulosin in DMSO and in mixtures of DMSO and water. The series is classed as physicochemical. The text has this: For example, dimethylsulfoxide (DMSO) may potentially be used. The table below gives some data on the solubility of tamsulosin in DMSO and in mixtures of DMSO and water: […]

`CCOc1ccccc1OCCN[C@H](C)Cc1ccc(OC)c(S(N)(=O)=O)c1` [Tamsulosin, 5-[2-[[2-(2-ethoxyphenoxy)ethyl]amino]propyl]-2-methoxy-benzenesulfonamide]: the “Solubility of Tamsulosin” value (Water in DMSO 0 w/w %) is 230 mg/g, the “Solubility of Tamsulosin” value (Water in DMSO 8.85 w/w %) was 72.9 mg/g and the “Solubility of Tamsulosin” value (Water in DMSO 16.85 w/w %) is recorded as 30.2 mg/g. The “Solubility of Tamsulosin (w/w %)” value (Water in DMSO 0 w/w %) worked out at 23.0 w/w %, the “Solubility of Tamsulosin (w/w %)” value (Water in DMSO 8.85 w/w %) is given as 7.29 w/w %, the “Solubility of Tamsulosin (w/w %)” value (Water in DMSO 16.85 w/w %) worked out at 3.02 w/w % and the “Solubility of Tamsulosin (w/w %)” value (Water in DMSO 29.19 w/w %) is recorded as 0.52 w/w %.
